Consider seven compounds from patent US6495737B1, “Methods and compositions for improving salicylic acid-independent systemic acquired disease resistance in plants” (Rutgers, The State University of New Jersey, priority 1996, dated 2002).

One series relates to fungal pathogen. The note with it: cited from earlier work; for effectiveness at protecting / inducing resistance to fungal infection in barley: highly susceptible barley cultivar.
The test system of another series is potato suspension cells. The note with it: cited from earlier work.
Series [1] concerns seven groups of SIS genes (ACCO, ACCD, HMGR, APX, PR-3, SAR8.2, PAR-1). The series can be described thus: Northern analysis of SIS gene expression in tobacco leaves injected with chemicals. It is filed as in vivo, Nicotiana tabacum cv. Xanthi nc. The note with it: 1 mM injected into leaf. The method, then: (§1) One leaf on each plant was injected with water, 1 mM of SA, INA or 4-hydroxybenzoic acid (4HBA). At the times indicated, injected leaves from two similarly treated plants (˜5 g tissue) were harvested and total RNA was extracted. Ten μg of RNA was loaded in each lane. The experiment with all ten probes was done twice.
Tobacco (Nicotiana tabacum cv. Xanthi nc) plants and NahG-10 seeds, kindly provided by John Ryals at Novartis, Research Triangle, NC, were grown at 20° C. in a growth room with a 14-h day cycle. Two upper, fully expanded leaves of 6-8 week-old plants were infected with TMV strain U1 at a concentration of 1 μg/ml in 50 mM phosphate buffer (pH 7.2) containing carborundum. Control plants were treated with phosphate buffer and carborundum only. Inoculated plants were maintained in a 22° C. growth chamber until harvesting. In temperature shift experiments, plants were immediately put into a 32° C. growth chamber after infection with TMV. After a 48 h incubation period, the temperature was shifted from 32° C. to 22° C.
(§2) SA and its analog 4-hydroxybenzoic acid were purchased from Sigma. INA was provided by Uwe Conrath and Heinrich Kauss at Universitat Kaiserslautern, Germany. All chemicals were dissolved in water and adjusted a pH of 6.5 with NaOH. They were injected into plants at a concentration of 1 mM. Control plants were injected with distilled water.
(§3) Infected leaves were harvested and frozen in liquid nitrogen and stored at −80° C. until RNA extraction. Total RNA was extracted by phenol/chloroform essentially as described by Berry et al. (1985) with some modifications on the extraction buffer (50 mM Tris.HCl, pH8.0, 20 mM EDTA, 100 mM NaCl, and 2% SDS). For RNA blots, 10 μg of total RNA was loaded in each lane. RNA was separated on 1.2% agarose gels containing 18% formaldehyde and transferred to a Nytran Plus membrane (Schleicher and Schuell, Inc., Keene, N.H.). RNA was fixed to the membrane by cross-linking with UV light and then baked at 80° C. for 2 h. Prehybridization and hybridization were performed at 60° C. in 0.5M phosphate buffer (pH 7.2), containing 1% BSA, 7% SDS, and 1 mM EDTA (Church and Gilbert, 1984). The membranes were washed twice in 2×SSC at room temperature for 10 min each, twice in 2×SSC containing 0.5% SDS at 65° C. for 30 min, and twice in 0.1×SSC at room temperature for 30 min each. The probes were prepared from linearized DNA fragments and labeled with ^32p using the random-prime labeling method (Feinberg and Vogelstein, 1984). The PR-1a DNA clone was previously isolated in our lab and the tobacco PAL DNA clone was kindly provided by Michel Legrand and Bernard Fritig, Centre National de la Recherche Scientifique, Strasbourg, France.

In the next series the test system is PR-1 genes. The series can be described thus: Northern analysis of PR-1 gene expression in tobacco leaves injected with chemicals. It is filed as in vivo, Nicotiana tabacum cv. Xanthi nc. The note with it: for induction of PR-1 genes (in words): exogenous treatment of tobacco. As for the experimental part: as §1, §2, §3
(§4) 2,4-D, […], and its analog 4HBA were purchased from Sigma. IAA was purchased from GIBCO BRL. INA was provided by Uwe Conrath at Universitat Kaiserslautern, Germany. SA, 4HBA and INA were dissolved in water and adjusted to […] pH of 6.5. They were injected into plants at a concentration of 1 mM with a needle-less syringe. Control plants were injected with distilled water. IAA and 2,4-D was dissolved in 0.2% ethanol.
(§5) Total RNA was isolated from tobacco tissue by phenol/chloroform as described in Example 1. Ten micrograms of total RNA was analyzed by electrophoresis in a 1.2% agarose gel containing formaldehyde and blotted to Nytran Plus membranes (Schleicher and Schuell). […] Following autoradiography, mRNA levels were quantitated using a Phosphorimager (Molecular Dynamics).

The subject of the next series is PAL genes. Description: Northern analysis of PAL gene expression in tobacco leaves injected with chemicals. The following applies: 1 mM injected into leaf. It is filed as in vivo, Nicotiana tabacum cv. Xanthi nc. The method, then:
as §1, §2
Infected leaves were harvested and frozen in liquid nitrogen and stored at −80° C. until RNA extraction. Total RNA was extracted by phenol/chloroform essentially as described by Berry et al. (1985) with some modifications on the extraction buffer (50 mM Tris.HCl, pH8.0, 20 mM EDTA, 100 mM NaCl, and 2% SDS). For RNA blots, 10 μg of total RNA was loaded in each lane. RNA was separated on 1.2% agarose gels containing 18% formaldehyde and transferred to a Nytran Plus membrane (Schleicher and Schuell, Inc., Keene, N.H.). RNA was fixed to the membrane by cross-linking with UV light and then baked at 80° C. for 2 h. […]

For series [2], the system named is EH-1 gene. Description: EH-1 gene expression in tobacco suspension cells treated with auxins. The following applies: 100 μM, hormone-free medium 2 days, 0-12 h. It is filed as cell-based. As for the experimental part:
(§6) FIG. 12A: tobacco leaves were injected with water or 1 mM SA, INA or 4HBA. Samples were harvested at the times indicated and total RNA was extracted from treated tissue. Ten μg of RNA was loaded in each lane. FIG. 12B: quantification of EH-1 transcripts corresponding to the data from FIG. 12A. The method of quantification is described in FIG. 9. The experiments were done twice. FIG. 12C: cell cultures were subcultured for 2 days in hormone-free medium to deplete hormones. Water, 2,4-D or IAA were then added to the media at 100 μM. Cells were collected at the times indicated.
(§7) Cell suspension was treated with auxins as described by Xiang et al (1996). Cell cultures were grown in hormone-free medium for 2 days to deplete hormones in the medium. IAA (100 μM) and 2,4-D (100 μM) were added to the suspension. Cells were harvested at 0, 2, 6 and 12 h after addition of auxins. Water was added to the control.
(§8) Total RNA was isolated from tobacco tissue by phenol/chloroform as described in Example 1. Ten micrograms of total RNA was analyzed by electrophoresis in a 1.2% agarose gel containing formaldehyde and blotted to Nytran Plus membranes (Schleicher and Schuell). Blots were hybridized with [alpha-^32P]dCTP-labeled probes prepared by the random-priming method with a oligo labelling kit (Pharmacia). […] Following autoradiography, mRNA levels were quantitated using a Phosphorimager (Molecular Dynamics).

The test system of series [3] is auxin-inducible glutathione S-transferase gene, GNT35. Description: GNT35 gene expression in tobacco suspension cells treated with auxins (positive control). It is filed as cell-based. The note with it: 100 μM, hormone-free medium 2 days. As for the experimental part: as §6, §7, §8
In the next series the test system is Arabidopsis sEH gene. The note with it: in vivo; cited from earlier work.
In series [4] the test system is EH-1 gene. Description: EH-1 gene expression in tobacco leaves injected with chemicals. The following applies: 1 mM injected into leaf. It is filed as in vivo, Nicotiana tabacum. As for the experimental part: as §6, §4, §5

Entries after “also recorded” stand apart in the source; their conditions may differ.

As for `O=C(O)CCCCCCCC(O)C(O)CCCCCCCCO` (stereo not shown) [9,10,18-trihydroxystearic acid], in the series with fungal pathogen, the “effectiveness at protecting / inducing resistance to fungal infection in barley” value was “nearly as effective”. Moreover, the “toxicity relative to HESA” value in the series with fungal pathogen (in vivo) is listed as “less toxic than HESA”. In addition, the alkalinization of media entry with potato suspension cells is given as “to a lesser extent than HESA”.
Take `O=C(O)CCCCCCCC1OC1CCCCCCCCO` (stereo not drawn) [HESA, cis-9,10-epoxy-18-hydroxystearic acid]: in the series with fungal pathogen, the “effectiveness at protecting / inducing resistance to fungal infection in barley” value was “most effective”. Besides, the alkalinization of media result in the series with potato suspension cells is listed as “caused the rapid alkalinization”.
Consider `O=C(O)c1ccccc1O` [SA, salicylic acid], for which, in series [1], the “activation of the seven groups of SIS genes (in words)” value (from here on “activation”) was “induced their expression transiently; also recorded: rapid and transient activation of six of the seven groups”; the “time post treatment by which SIS mRNA levels had declined” value was no more than 24 h; the “time post treatment by which mRNA levels for all SIS genes had peaked” value is listed as no more than 12 h. Moreover, the “time after injection by which six of the seven groups of SIS genes were induced” value in series [1] (Northern blot) lay within 4 to 6 h. Further, the “time after treatment at which increased expression of PAR-1 was detected” value in [1] (this experiment) came out at 12 h. In addition, the “time post treatment at which PR-1 mRNAs were first detected” value in the series on PR-1 genes (1 mM injected into leaf, Example 1) is given as 12 h. In addition, the “time post treatment at which PR-1 transcripts were first detected” value with PR-1 genes (1 mM injected into leaf, Example 2) was found to be 12 h. Also, the “induction of PR-1 genes (in words)” value in the series with PR-1 genes is “slow and sustained”. Besides, the “induction of PAL gene expression (in words)” value with PAL genes is “little, if any, induction of PAL; also recorded: neither SA nor INA can induce PAL gene expression”.
On to `O=C(O)c1ccc(O)cc1` [4HBA, 4-hydroxybenzoic acid], for which, in series [1], the “activation” value is “failed to activate these genes”.
As to `O=C(O)COc1ccc(Cl)cc1Cl` [2,4-D, 2,4-dichlorophenoxy acetic acid], in the series with EH-1 gene [2], the “induction of EH-1 expression (in words)” value is reported as “Little or no induction”. Also, in series [3], the “induction of GNT35 expression (in words)” value was “rapidly induced”. For the same compound, the “induction of Arabidopsis sEH gene” value with Arabidopsis sEH gene was “induced by auxins”.
On to `O=C(O)c1cc(Cl)nc(Cl)c1` [INA, 2,6-dichloroisonicotinic acid], for which, in series [1], the “activation” value is “induced by INA, generally in a transient manner; also recorded: rapid and transient activation of six of the seven groups”. Besides, the “induction of PR-1 genes (in words)” value with PR-1 genes is “slow and sustained”. Also, in the series on PAL genes, the “induction of PAL gene expression (in words)” value is on record as “neither SA nor INA can induce PAL gene expression”. Further, in the series with EH-1 gene [4], the “EH-1 transcript accumulation (in words)” value is “induced a transient accumulation of EH-1 transcripts; also recorded: accumulate rapidly and transiently”.
Take `O=C(O)Cc1c[nH]c2ccccc12` [IAA, indole-3-acetic acid]: the “induction of EH-1 expression (in words)” value in the series with EH-1 gene [2] is reported as “Little or no induction”. The “induction of GNT35 expression (in words)” value in series [3] is recorded as “rapidly induced”. For the same compound, the “induction of Arabidopsis sEH gene” value with Arabidopsis sEH gene is on record as “induced by auxins”.
